Converted amounts (≈) assume the structure as drawn.
Tests used:
[1] = Liver S9 fraction stability, monkey; assay type: in vitro ADME, cynomolgus monkey; conditions: monkey liver S9 1.0 mg/ml, 2 μM, 37° C.
Experimental: (§1) Liver S9 fraction stability determination of the test compounds in dog, cynomolgus monkey and human is performed using HPLC-MS. Test compound (2 μM, 0.1% DMSO, 1% Methanol final concentration) was assessed for stability in a 50 μl phosphate buffer containing 1.0 mg/ml S9 protein from each of the three species and 5 mM D-saccharic acid-1, 4-lactone. Samples were incubated at 37° C. for 60 minutes and the % compound remaining was assessed.

[2] = Liver S9 fraction stability, human; assay type: in vitro ADME; conditions: human liver S9 1.0 mg/ml, 2 μM, 37° C.
Experimental: as §1

KOR = molecular target: T1, KOR (Homo sapiens, UniProt P41145); test: Opioid receptor binding assay, KOR ([3H]Diprenorphine)
T1 construct: expressed in transfected cells
T1 sequence (P41145 whole entry): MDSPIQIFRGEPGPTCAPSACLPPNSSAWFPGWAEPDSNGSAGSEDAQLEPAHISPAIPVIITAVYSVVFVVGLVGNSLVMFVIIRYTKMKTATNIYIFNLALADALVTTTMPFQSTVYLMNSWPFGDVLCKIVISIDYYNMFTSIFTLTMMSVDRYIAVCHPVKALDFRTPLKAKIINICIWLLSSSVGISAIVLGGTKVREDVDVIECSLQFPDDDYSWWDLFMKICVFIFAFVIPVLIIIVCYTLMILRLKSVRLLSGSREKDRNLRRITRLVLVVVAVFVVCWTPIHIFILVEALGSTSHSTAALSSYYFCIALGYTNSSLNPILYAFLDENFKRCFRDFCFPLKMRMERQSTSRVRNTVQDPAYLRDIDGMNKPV
Experimental: (§2) Receptor binding assays were performed to assess the ability of compounds to inhibit binding to radiolabeled ligand.
(§3) The stable cell lines were established and prepared cell membrane obtained using these cell lines.
(§4) 1) Transfer 1 μl of specified concentration compound to assay plate according to the plate map for nonspecific binding. Transfer 1 μl of DMSO to assay plate according to plate map for total binding. 2) Follow the plate map. Dispense 99 μl of membrane stocks into the plate. 3) Add 100 μl of radio ligand. 4) Seal the plates. Incubate at RT for 1 hour. 5) Soak the Unifilter-96 GF/C filter plates with 50 μl of 0.3% PEI per well for at least 0.5 hour at room temperature. 6) When binding assays are completed, filter the reaction mixture through GF/C plates using Perkin Elmer Filtermate Harvester, and then wash each plate for 4 times with cold wash buffer. 7) Dry the filter plates for 1 hour at 50 degrees. 8) After drying, seal the bottom of the filter plate wells using Perkin Elmer Unifilter-96 backing seal tape. Add 50 μl of Perkin Elmer Microscint 20 cocktail. Seal top of filter plates with Perkin Elmer TopSeal-A sealing film. 9) Count ^3H trapped on filter using Perkin Elmer MicroBeta2 Reader second day. 10) Analyze the data with GraphPad Prism 5. Calculate the “Inhibition [% Control]” using the equation: % Inh=(1−Background subtracted Assay value/Background subtracted HC value)*100.

[3] = Solubility determination in oil (Table 10); conditions: thermodynamic from solid; for solubility at 24 h: 25 °C, Heating Temp. 60 °C, Obs. Temp. 25 °C; for solubility thermodynamic / solubility: 40 °C, Heating Temp. 40 °C, Obs. Temp. 40 °C; for solubility thermodynamic: water, Equilibrium solubility: Water
Experimental: A known amount of test substance (˜40 mg) was weighed into the vial, 100 μL of oil was added and heated to 60° C. and then system was slurried to reach equilibrium. […] Extra oil was added into the vial once compound precipitated out and then the system was re-equilibrated at 1000 rpm at room temperature (25° C.). Final concentration was determined by HPLC method as described below in Table 6a and 6b.

[4] = Dog pharmacokinetic studies, deep intramuscular administration; assay type: in vivo, Beagle dogs; conditions: Beagle, dog, plasma, im; for AUC(0-inf): read-out: AUC0-inf (ng · h/mL) prodrug; for half-life: read-out: Half-life t1/2 (hour) prodrug (converted)
Experimental: The purpose of this study is to determine the pharmacokinetics of test compounds in plasma, following deep intramuscular administration to Beagle dogs (n=3, unless otherwise specified).
The dose formulation (concentration—400 mg base equivalents/ml in sesame oil+1% benzyl alcohol, unless otherwise specified) was administered via deep intramuscularly (unless otherwise specified). The injection vehicle was also dosed via deep intramuscular route (unless otherwise specified) on contralateral site of each animal at study initiation. The animals were sedated with Propofol at 6 mg/kg via IV administration. Following sedation hair was carefully removed from around the injection site and the area gently cleaned. Care will be taken to avoid irritating skin during shaving and cleaning the injection site. Then dogs will be dosed with deep IM administration. At least 2.5 cm depth from the surface into the central aspect of the quadriceps or biceps femoris muscle, by angling the needle toward the femur. If the needle hits the femur, simply draws back slightly and then inject. The dose volume will be determined by the animals' body weight collected on the morning of dosing day. For repeated administration, the injection sites may be rotated to minimize tissue injury.
Blood samples were collected from a peripheral vessel from restrained, non-sedated animals per sampling time point.
Approximately 0.8 mL blood will be collected at each time point.
(§5) Each collected blood sample was centrifuged for 4 minutes at 4° C. and 10000 rpm for plasma collection. Plasma was collected and transferred into a pre-labeled PP tube in dry ice at each time point and precipitated immediately using ACN at a ratio of 1:4 (plasma:ACN).
(§6) LC-MS/MS methods for the quantitative determination of test compound in biological matrix were developed. […] The sample analysis was performed concurrently with a set of calibration standards and two sets of QC samples using the LC-MS/MS method.
(§7) Plasma concentration versus time data was analyzed by non-compartmental approaches using the Phoenix WinNonlin 6.3 software program. Cmax, Tmax, T1/2, AUC(0-t), AUC(0-inf), MRT(0-t), MRT(0-inf) and graphs of plasma concentration versus time profile were prepared.

[5] = Liver S9 fraction stability, dog; assay type: in vitro ADME; conditions: dog liver S9 1.0 mg/ml, 2 μM, 37° C.
Experimental: as §1

DOR = molecular target: T2, DOR (Homo sapiens, UniProt P41143); test: Opioid receptor binding assay, DOR ([3H]-DADLE)
T2 construct: expressed in transfected cells
T2 sequence (P41143 whole entry): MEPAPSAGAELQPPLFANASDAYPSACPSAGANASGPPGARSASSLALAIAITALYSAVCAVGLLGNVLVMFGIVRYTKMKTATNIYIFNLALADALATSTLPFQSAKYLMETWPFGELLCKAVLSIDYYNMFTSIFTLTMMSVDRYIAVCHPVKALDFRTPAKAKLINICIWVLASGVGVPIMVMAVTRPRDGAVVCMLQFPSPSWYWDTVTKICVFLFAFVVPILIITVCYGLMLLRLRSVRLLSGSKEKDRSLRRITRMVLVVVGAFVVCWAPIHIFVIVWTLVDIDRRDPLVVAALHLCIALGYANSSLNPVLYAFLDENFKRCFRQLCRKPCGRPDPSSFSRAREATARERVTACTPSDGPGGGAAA
Experimental: as §2, §3, §4

MOR = molecular target: T3, MOR (Homo sapiens, UniProt P35372); test: Opioid receptor binding assay, MOR ([3H]DAMGO)
T3 construct: expressed in transfected cells
T3 sequence (P35372 whole entry): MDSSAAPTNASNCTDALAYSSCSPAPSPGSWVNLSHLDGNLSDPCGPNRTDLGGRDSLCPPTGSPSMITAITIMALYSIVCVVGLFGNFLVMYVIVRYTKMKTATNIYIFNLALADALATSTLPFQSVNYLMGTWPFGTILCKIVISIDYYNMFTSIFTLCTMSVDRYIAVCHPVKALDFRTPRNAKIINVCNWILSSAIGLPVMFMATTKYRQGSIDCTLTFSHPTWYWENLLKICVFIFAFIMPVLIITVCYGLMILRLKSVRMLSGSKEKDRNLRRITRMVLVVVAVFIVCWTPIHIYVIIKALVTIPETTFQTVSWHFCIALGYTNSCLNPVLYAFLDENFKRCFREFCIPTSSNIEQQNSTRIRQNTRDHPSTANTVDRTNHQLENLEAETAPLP
Experimental: as §2, §3, §4

[6] = Rat pharmacokinetic studies, intramuscular administration; assay type: in vivo, male Sprague Dawley Rats; conditions: male, Sprague Dawley, rat, plasma, im; for AUC(0-inf): read-out: AUC0-inf (ng · h/mL) prodrug; for half-life: read-out: Half-life t1/2 (hour) prodrug (converted)
Experimental: The purpose of this study is to determine the pharmacokinetics of test compounds in plasma, following intramuscular administration to male Sprague Dawley Rats (n=3, unless otherwise specified).
The dose formulation of 400 mg base equivalents/ml in sesame oil+1% benzyl alcohol (unless otherwise specified) was administered by intramuscular injection. The dose volume was determined by the animals' body weight determined on the morning of dosing day.
as §5, with “(plasma:ACN). Centrifuged again (10 minutes, 12000 rpm) and obtain the supernatant.” for “(plasma:ACN).”
as §6, §7

[7] = oil or lipid, Approximate Solubility in Excipient: Cottonseed oil
[8] = oil or lipid, Approximate Solubility in Excipient: Sesame oil
[9] = 48 mg/kg, IM 48 mg/kg (deep), Cottonseed + 1% Benzyl Alcohol
[10] = 48 mg/kg, IM 48 mg/kg (shallow), Cottonseed + 1% Benzyl Alcohol
[11] = 80 mg/kg, Cottonseed + 1% Benzyl Alcohol
[12] = 123 mg/kg, Cottonseed oil + 1% Benzyl Alcohol
[13] = 165 mg/kg, Cottonseed oil + 1% Benzyl Alcohol
[14] = 30 mg/kg, IM 30 mg/kg, Sesame oil + 1% Benzyl Alcohol
[15] = 48 mg/kg, IM 48 mg/kg (deep), Sesame oil + 1% Benzyl Alcohol
[16] = 48 mg/kg, IM 48 mg/kg (shallow), Sesame oil + 1% Benzyl Alcohol
[17] = 96 mg/kg, IM 96 mg/kg, Sesame oil + 1% Benzyl Alcohol
[18] = 80 mg/kg, Sesame oil + 1% Benzyl Alcohol
[19] = 123 mg/kg, Sesame oil + 1% Benzyl Alcohol
[20] = 165 mg/kg, Sesame oil + 1% Benzyl Alcohol

In the case of `C=C1CC[C@@]2(O)C3Cc4ccc(OCOC(=O)OCCCCCCCCCCCC)c5c4[C@@]2(CCN3CC2CC2)[C@H]1O5` [Compound 24, (((4aS,7aS,12bS)-3-(cyclopropylmethyl)-4a-hydroxy-7-methylene-2,3,4,4a,5,6,7,7a-octahydro-1H-4,12-methanobenzofuro[3,2-e]isoquinolin-9-yl)oxy)methyl dodecyl carbonate], the “% remaining at 60 minutes, Monkey” value [1] is reported as 3%, the “% remaining at 60 minutes, Human” value [2] is reported as 3.5% and the IC50 (KOR) is reported as 37.5 nM. The solubility at 24 h [3, 7] was > 403 mg/mL, the solubility at 24 h [3, 8] was 338 to 368 mg/mL (≈ 581 to 633 mM) and the solubility thermodynamic [3] was < 0.001 mg/mL. For the same compound, the AUC(0-inf) [4, 9] was 613 ng·h/mL, the half-life [4, 9] was 59.6 h and the AUC(0-inf) [4, 10] was 526 ng·h/mL. For the same compound, the half-life [4, 10] was 102 h, the “% remaining at 60 minutes, Dog” value [5] was 3.6% and the IC50 (DOR) was 2120 nM. The IC50 (MOR) was 22.4 nM, the AUC(0-inf) [6, 11] was 147 ng·h/mL and the half-life [6, 11] was 398 h. For the same compound, the AUC(0-inf) [6, 12] was 547 ng·h/mL, the half-life [6, 12] was 717 h and the AUC(0-inf) [6, 13] was 453 ng·h/mL. It also gave a half-life [6, 13] of 851 h.
For `C=C1CC[C@@]2(O)C3Cc4ccc(OC(=O)OCCCCCCCCCCCC)c5c4[C@@]2(CCN3CC2CC2)[C@H]1O5` [Compound 6, (4aS,7aS,12bS)-3-(cyclopropylmethyl)-4a-hydroxy-7-methylene-2,3,4,4a,5,6,7,7a-octahydro-1H-4,12-methanobenzofuro[3,2-e]isoquinolin-9-yl dodecyl carbonate], the “% remaining at 60 minutes, Monkey” value [1] was 0%, the “% remaining at 60 minutes, Human” value [2] was 5.3% and the IC50 (KOR) was 51.1 nM. The solubility at 24 h [3, 7] was > 397 mg/mL, the solubility at 24 h [3, 8] was > 386 mg/mL and the solubility [3, 7] was > 421 mg/mL. For the same compound, the solubility [3, 8] was > 403 mg/mL, the solubility ([3]; organic solvent or mixture, Approximate Solubility in Excipient: Ethanol) was 120 to 170 mg/mL (≈ 217 to 308 mM) and the solubility thermodynamic [3] was 0.002 mg/mL (≈ 0.00362 mM). The AUC(0-inf) [4, 14] was 398 ng·h/mL, the half-life [4, 14] was 95 h and the AUC(0-inf) [4, 15] was 2190 ng·h/mL. For the same compound, the half-life [4, 15] was 54 h, the AUC(0-inf) [4, 16] was 1020 ng·h/mL and the half-life [4, 16] was 135 h. The AUC(0-inf) [4, 17] was 1290 ng·h/mL, the half-life [4, 17] was 88 h and the “% remaining at 60 minutes, Dog” value [5] was 17.1%. The IC50 (DOR) was 500 nM, the IC50 (MOR) was 14.9 nM and the AUC(0-inf) [6, 18] was 78.9 ng·h/mL. For the same compound, the half-life [6, 18] was 340 h, the AUC(0-inf) [6, 19] was 620 ng·h/mL and the half-life [6, 19] was 213 h. For the same compound, the AUC(0-inf) [6, 20] was 637 ng·h/mL and the half-life [6, 20] was 204 h.

Source: patent publication US20190308988A1, “OPIOID RECEPTOR ANTAGONIST PRODRUGS” (Nirsum Laboratories, Inc., priority 2017, published 2019)
